Data set [1] relates to human colon carcinoma (HT-29). Put plainly: MTT assay, in vitro cell viability, HT-29. As to conditions: ± standard deviation. It counts as cell-based. The procedure:
(§1) To study the ability of the prepared ligands and the synthesized complexes in retarding the growth of cancer cell, the MTT assay was performed with human cervical carcinoma (HeLa), human colon carcinoma (HT-29), and non-cancerous L929 (fibroblast) cell lines. As a reference, cisplatin is also examined with all the cell lines for an incubation period of 24 h and as stated in Table 1.
(§2) 2. Experimental Procedures […]
(§3) The cell lines HeLa, HT-29, and L929 were collected from ATCC and the stock cells were cultured in DMEM/ F12 enriched with 10% inactivated Fetal Bovine Serum (FBS), penicillin (100 IU/ml), streptomycin (100 µg/ml) in a humidified atmosphere of 5% carbon dioxide at 37 °C until confluent. The cells were dissociated with cell dissociating solution (0.2 % trypsin, 0.02 % EDTA, 0.05 % glucose in PBS). The viability of the cells have been checked and centrifuged. Further, 50,000 cells /well of […] was seeded in a 96 well plate and incubated for 24 hours at 37 °C, 5 % carbon dioxide incubator.
(§4) The monolayer cell culture has been trypsinized and the cell count was altered to […] using respective media comprising 10% FBS. 100 µL of the diluted cell suspension (50,000 cells/well) was added to each well of the 96 well microtiter plate. When a partial monolayer formed after 24 hours, the supernatant was swiped off and the monolayer has been washed with the medium. 100 µL of various concentrations of complexes have been added on to the partial monolayer in microtiter plates. Then, the […]
(§5) incubation, the test solutions in the wells have been discarded and 100 µL of MTT (5 mg/10 ml of MTT in PBS) was added to each well. The plates have been incubated for four hours at 37 °C in 5% carbon dioxide atmosphere. The supernatant has been removed and 100 µL of DMSO was applied to dissolve the formed formazan. The absorbance was recorded using a microplate reader at 590 nm. The % growth inhibition has been determined using the […]
(§6) Cell viability (%) = (Absorbance of each well/ Absorbance of control well) × 100 […]
(§7) Hoechst 33342 staining method
(§8) 5 × 10^5 HeLa cells have been incubated with IC50 concentration of the complex 4 for 24 hours in a 6-well culture plate and have been fixed with 4% paraformaldehyde followed by permeabilization with 0.1% Triton X-100. Cells were then stained with 50 μg /mL Hoechst 33342 for 30 min at ambient temperature. The cells undergoing apoptosis were observed and visualized by epifluorescence microscope (Carl Zeiss, Germany).

Data set [2] relates to human cervical carcinoma (HeLa). Put plainly: MTT assay, in vitro cell viability, HeLa. The class given is cell-based. As to conditions: ± standard deviation. The procedure:
as §1, §2, §3, §4, §5, §6, §7, §8

In data set [3] the test system is non-cancerous L929 (fibroblast) cell lines. Put plainly: MTT assay, in vitro cell viability, L929. As to conditions: ± standard deviation. The class given is cell-based. The procedure:
as §1, §2, §3, §4, §5, §6, §7, §8

Another data set relates to caspase-3. Put plainly: Caspase activity assay, caspase-3 in HeLa cells. The class given is cell-based, human. As to conditions: IC50 concentration, 12 and 24 h. The source says:
(§9) The apoptotic mode of cancer cell death was further substantiated by caspase activation by ELISA analysis. In eukaryotes, caspases(protease enzymes) play a significant role in induction, transduction, and amplification of intracellular apoptotic signals. Based on the amino acid composition, caspases are divided into three sub-families, namely, […], executioner, and mediator caspases.[37] Most importantly, the initiator and executioner caspases get involved in the apoptotic signaling cascade. Caspase-8 and -9 are the initiators of the extrinsic and intrinsic pathways of apoptosis, respectively. Both mechanisms converge in the activation of the executioner caspase-3.[38]
(§10) Reactive Oxygen Species (ROS) Assay
(§11) To quantify the intracellular ROS, 5 × 10^5 HeLa cells have been seeded on a 6-well plate comprising cover slip and incubated overnight for attachment. […]
(§12) Culture cells on cover slips in 6‐well cell culture plates at a density around 5 x 10^5 cells/mL overnight in an incubator (5% carbon dioxide, 37 °C). […] The cells were immediately examined under a fluorescent microscope (Olympus, CKX-53, Japan), and the proportion of dead cells was calculated in at least three randomly chosen microscopic fields. […]
(§13) The caspase activity assay was determined by a chromogenic assay using caspase-3 (Calbiochem, Merck), caspase-8 and 9 (Chemicon International Inc.) colorimeter activity assay kits. […]

A further data set concerns caspase-8. Put plainly: Caspase activity assay, caspase-8 in HeLa cells. The class given is cell-based, human. The following applies: IC50 concentration, 12 and 24 h.
Excerpt: as §9, §10, §11, §12, §13

The nature of data set [4]: Partition coefficient (log P), shake-flask, n-octanol-water. The class given is physicochemical. An excerpt: The permeability of the drug molecules into a lipid cytomembrane is a prime initiative for designing drugs and its development. The main properties like absorption, transportation, and expulsion of the drugs take control over the chief pharmacokinetic properties. Accordingly, we resolve the permeability of all the complexes with the help of calculated log P values using a n-octanol–water system. Based on the solubility of the complexes in aqueous and organic phases, the log P values are determined.[22]−[24] […] Complexes 3 and 4 display higher permeability characters (log P value) due to the presence of halogen and electron-donating group, respectively. Additionally, the presence of the carbazole moiety in the complexes enhanced the lipophilicity.[25],[26]
2. Experimental Procedures
UV-visible time dependent spectral method has been used to examine the stability of the complexes. Complexes were dissolved in a minimum amount of 1% DMSO and then diluted with PBS buffer to 1×10−3 M concentration. The hydrolysis profiles of the complexes were monitored by their electronic spectra over 72 h.
Partition coefficients determination
The "shake-flask" technique was used to evaluate the lipophilicity of complexes 2 - 4 using octanol/water phase partitions. Double distilled water and analytical grade octanol (Sigma Aldrich) were used to produce octanol-saturated water and water-saturated octanol phases. Complexes 2−4 (1 mg/mL; ethanol/water) have been diluted to 2, 4, 6, 8, and 10 μg/mL in water and alternatively were diluted to 2, 4, 6, 8, and 10 μg/mL in octanol, respectively. Equal volumes (50/50) of the complexes in the proper concentrations […] have been shaken for 24 hours at ambient temperature. The organic and aqueous fractions have been separated and centrifuged when equilibrium was attained. Finally, UV-visible spectroscopy was used to determine the complex concentration in each phase. The concentration of the sample solution was used to calculate the partition coefficients (log P) by using the equation log P = log[(1−3)oct/(1−3)aq]. 4 […]

Data set [5] relates to HeLa cancer cells. Put plainly: ROS detection (DCFH-DA). It counts as cell-based, human. As to conditions: IC50 concentration, 24 h, control 20 %.
Excerpt: ROS, like hydrogen peroxide, superoxide anion, and hydroxyl radical, are produced on mitochondrial oxidative metabolism along with cell’s reaction toward cytokines and bacterial invasion. At low levels of ROS, it could participate in cell signaling. Whereas, at higher levels they might damage (DNA and RNA) and engage in apoptosis via mitochondrial dysfunction.[32] The quantity of ROS is detected with the help of oxidant fluorescent dye. The nonpolar dye DCFH-DA turned out to be deacetylated and transformed into DCFH (polar) by intracellular esterases. However, DCFH is not identified using a microscope. […]
as §11, §12
(§14) HeLa ells have been seeded in a 6-well plate (10^5 cells/well)) and cultured at 37 °C for 24 hours. […] Finally, apoptosis induction has been assessed using a flow cytometer (SYSMEX, Japan), and the data have been analyzed by Flow Jo software. […]

In data set [6] the test system is HeLa cancer cells. Put plainly: Mitochondrial membrane potential, JC-1 staining. It counts as cell-based, human. The following applies: IC50 concentration, 24 h. The method, then:
The mitochondrial dysfunction-mediated apoptosis was assayed via ROS generation. After the mitochondrial impairment, the mitochondrial membrane potential (MMP) is reduced and the same was examined using JC-1 fluorescence dye. The dye is used to assay the MMP to determine mitochondrial viability. Proapoptotic factors and other apoptotic inducing features were produced by mitochondria, which serves to be a significant role for apoptosis. […] In the control group (Figure 7A), JC-1 accumulates and produces a red fluorescence correlating to a high MMP.
as §10, §11, §12, §14

Another data set relates to caspase-9. Put plainly: Caspase activity assay, caspase-9 in HeLa cells. The class given is cell-based, human. As to conditions: IC50 concentration, 12 and 24 h.
Excerpt: as §9, §10, §11, §12, §13

Setting [7] is: Homo sapiens, HT-29, 24 h incubation, read-out: IC50 HT-29 24 h.
The mark [8] stands for this setting: Homo sapiens, HT-29, 48 h incubation, read-out: IC50 HT-29 48 h.
The mark [9] stands for this setting: Homo sapiens, HeLa, 24 h incubation, read-out: IC50 HeLa 24 h.
Where [10] appears, read: Homo sapiens, HeLa, 48 h incubation, read-out: IC50 HeLa 48 h.
Setting [11] is: Mus musculus, L929, 24 h incubation, read-out: IC50 L929 24 h.
[12] abbreviates: Mus musculus, L929, 48 h incubation, read-out: IC50 L929 48 h.
The mark [13] stands for this setting: 24 h incubation, read-out: IC50 HT-29 24 h.
Where [14] appears, read: 48 h incubation, read-out: IC50 HT-29 48 h.
Setting [15] is: 24 h incubation, read-out: IC50 HeLa 24 h.
[16] abbreviates: 48 h incubation, read-out: IC50 HeLa 48 h.
[17] abbreviates: 24 h incubation, read-out: IC50 L929 24 h.
Where [18] appears, read: 48 h incubation, read-out: IC50 L929 48 h.
[19] abbreviates: n-octanol-water system, shake-flask, UV-visible.

Read-outs that look alike come from different tables or passages of the source.

Regarding `O=C(N/N=C1/CCCc2c1[nH]c1ccccc21)c1ccc(Cl)cc1` [L2], the IC50 – broadly, the concentration needed to halve the response being measured – was more than 100 µM in data set [1] (setting [7]); 94 ± 1.27 µM in [1] (setting [8]); more than 100 µM in [2] (setting [9]); 86.2 ± 1.12 µM in data set [2] (setting [10]); more than 100 µM in data set [3] (setting [11]); more than 100 µM in [3] (setting [12]).
As for `N.N.[Cl][Pt][Cl]` [cisplatin, reference compound], the IC50 in data set [1] (setting [13]) was found to be 34.3 ± 1.45 µM; in [1] (setting [14]), 14.3 ± 1.57 µM; in data set [2] (setting [15]), 28.04 ± 0.18 µM; in data set [2] (setting [16]), 12.4 ± 1.81 µM; in data set [3] (setting [17]), 146.5 ± 0.79 µM; in [3] (setting [18]), 141.2 ± 0.37 µM.
As for `COc1ccc(C(=NN=C2CCCc3c2[nH]c2ccccc32)[O][Ni][O]C(=NN=C2CCCc3c2[nH]c2ccccc32)c2ccc(OC)cc2)cc1` [complex 4, [Ni(L3)2]], the IC50 in data set [1] (setting [13]) stood at 57.42 ± 0.09 µM; in data set [1] (setting [14]), 41.2 ± 1.28 µM; in [2] (setting [15]), 43.39 ± 0.21 µM; in data set [2] (setting [16]) it was 28.2 ± 0.32 µM; in [3] (setting [17]), 275.8 ± 0.35 µM; in [3] (setting [18]) it was 269.1 ± 1.1 µM. Moreover, the “Caspase-3 activity versus control cells” value with caspase-3 is listed as “time-dependent increase”. Moreover, in the data set with caspase-8, the “Expression of caspase-8” value is given as “efficiently upregulated”. Further, the log P – broadly, a log measure of how a compound divides between an organic and an aqueous phase – in data set [4] (setting [19]) was 1.95 ± 0.05. Besides, in the data set on HeLa cancer cells [5], the “% of fluorescence intensity, reactive oxygen species (DCFH-DA)” value is 80%. In addition, in the data set with HeLa cancer cells [6], the “Mitochondrial membrane potential (JC-1 fluorescence)” value is “decrease in MMP”. For the same compound, the “Caspase-9 activity versus control cells” value in the data set with caspase-9 is recorded as “time-dependent increase”.
As for `O=C(N/N=C1/CCCc2c1[nH]c1ccccc21)c1ccccc1` [L1], the 50% inhibitory concentration (IC50) in data set [1] (setting [7]), in [1] (setting [8]), in [2] (setting [9]), in [2] (setting [10]), in data set [3] (setting [11]) and in data set [3] (setting [12]) was more than 100 µM in each case.
`Clc1ccc(C(=NN=C2CCCc3c2[nH]c2ccccc32)[O][Ni][O]C(=NN=C2CCCc3c2[nH]c2ccccc32)c2ccc(Cl)cc2)cc1` [complex 3, [Ni(L2)2]]: the IC50 in [1] (setting [13]) turned out to be 59.2 ± 0.64 µM; in [1] (setting [14]), 50.8 ± 1.11 µM; in data set [2] (setting [15]) it was 45.4 ± 0.72 µM; in data set [2] (setting [16]), 32.8 ± 1.19 µM; in [3] (setting [17]), 253.1 ± 0.61 µM; in data set [3] (setting [18]), 247.4 ± 0.28 µM. Also, the “log P” value in data set [4] worked out at 1.57 ± 0.12.
On to `c1ccc(C(=NN=C2CCCc3c2[nH]c2ccccc32)[O][Ni][O]C(=NN=C2CCCc3c2[nH]c2ccccc32)c2ccccc2)cc1` [complex 2, [Ni(L1)2]], for which the IC50 in data set [1] (setting [13]) was determined as 68.59 ± 0.27 µM; in [1] (setting [14]) it was 61.25 ± 0.47 µM; in data set [2] (setting [15]), 49.3 ± 1.05 µM; in data set [2] (setting [16]) it was 40.12 ± 0.09 µM; in [3] (setting [17]), 248.1 ± 1.12 µM; in data set [3] (setting [18]), 236.3 ± 1.45 µM. In data set [4] (setting [19]), the “log P” value came to 0.86 ± 0.14.
Turning to `COc1ccc(C(=O)N/N=C2/CCCc3c2[nH]c2ccccc32)cc1` [L3], the IC50 in data set [1] (setting [7]) was more than 100 µM; in data set [1] (setting [8]) it was 81.7 ± 1.09 µM; in [2] (setting [9]) it was more than 100 µM; in data set [2] (setting [10]) it was 73.4 ± 0.82 µM; in data set [3] (setting [11]) it was more than 100 µM; in [3] (setting [12]), more than 100 µM.

These data come from article PMC10077545, “Exploration of Antiproliferative Activity and Apoptosis Induction of New Nickel(II) Complexes Encompassing Carbazole Ligands” (ACS Omega, 2023).
